Tested on: harvested pig hearts
Conditions: 500 μmol/L lidocaine in cardioplegic compositions, combined data of Part 1 and Part 2 (1, 3, 5 hours)
From the text: Part 1: The next study assessed if there were potential incremental benefits to increasing the duration of reperfusion of harvested donor hearts with a mildly acidic hypocalcemic oxygenated cardioplegic composition.
The sample solutions used for these tests were the same as Sample solutions IIIC described above.

SMILES: CCN(CC)CC(=O)Nc1c(C)cccc1C [lidocaine]
- effect of lidocaine concentration on donor heart myocardial function: debilitating effects
